Assay [1] has as its target Human recombinant full-length GST-tagged RPS6KA2 (RSK3) (Homo sapiens (Human), UniProt Q15349). Put plainly: Biochemical selectivity kinase assay (Z'-LYTE FRET), RSK3. To be noted: for IC50: 10 μM ATP (~Km); for RSK3 IC50/HPK1 Ki: ratio of the RSK3 IC50 to the HPK1 Ki. An excerpt: (§1) Biochemical Selectivity Kinase Assay.
(§2) The dose response curve was curve fit to model number 205 (sigmoidal dose-response model). A ratio of the PRKD2 IC50 to the HPK1 Ki and a ratio of the RSK3 IC50 to the HPK1 Ki, is provided in the respective columns adjacent to the columns for PRKD2 IC50 and RSK3 IC50.

Assay [2] concerns the target Human recombinant full-length GST-tagged PRKD2 (PKD2) (Homo sapiens (Human), UniProt Q9BZL6). Nature of the assay: Biochemical selectivity kinase assay (Z'-LYTE FRET), PRKD2. The note with it: for IC50: 25 μM ATP (~Km); for PRKD2 IC50/HPK1 Ki: ratio of the PRKD2 IC50 to the HPK1 Ki.
Text: as §1, §2

Assay [3] deals with human full-length autophosphorylated recombinant HPK1 (Homo sapiens (Human), UniProt Q92918). Put plainly: HPK1 biochemical enzyme assay (chelation-enhanced fluorescence, CHEF). The note with it: 0.5 nM HPK1, 45 μM ATP, Morrison fit. Put shortly: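 Autophosphorylated full-length human HPK1 from Sf21 cells, His-tag removed by TEV, residual N-terminal Gly-Ser. Activity measured with a C-Sox fluorescent peptide substrate (CHEF); initial velocities followed at λex 360/λem 500 nm, 30 °C for 15 min.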

Assay [4] has as its system Phospho-SLP-76 (Ser376) in Jurkat cells. Nature of the assay: Phospho-SLP-76 (Ser376) HTRF assay in anti-CD3 stimulated Jurkat cells. To be noted: Homo sapiens, Jurkat, 30 min pre-treatment, anti-CD3 stimulation 15 min, read-out: pSLP76 IC50. The class given is cell-based. Put shortly:
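Jurkat cells pre-treated 30 min with compound (11-point 3-fold series, final 10 μM to 0.1 nM, 0.1% DMSO), then stimulated 15 min at 37° C with 200 μg/mL F(ab)2-complexed anti-CD3 (UCTH1). Lysate phospho-SLP-76 read by HTRF sandwich after overnight RT incubation; IC50 from four-parameter fit.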
In general terms: In TR-FRET formats the signal depends on donor and acceptor labels being close together.

human full-length autophosphorylated recombinant HPK1, sequence (Q92918 other isoform, or with tags, fused parts or gaps): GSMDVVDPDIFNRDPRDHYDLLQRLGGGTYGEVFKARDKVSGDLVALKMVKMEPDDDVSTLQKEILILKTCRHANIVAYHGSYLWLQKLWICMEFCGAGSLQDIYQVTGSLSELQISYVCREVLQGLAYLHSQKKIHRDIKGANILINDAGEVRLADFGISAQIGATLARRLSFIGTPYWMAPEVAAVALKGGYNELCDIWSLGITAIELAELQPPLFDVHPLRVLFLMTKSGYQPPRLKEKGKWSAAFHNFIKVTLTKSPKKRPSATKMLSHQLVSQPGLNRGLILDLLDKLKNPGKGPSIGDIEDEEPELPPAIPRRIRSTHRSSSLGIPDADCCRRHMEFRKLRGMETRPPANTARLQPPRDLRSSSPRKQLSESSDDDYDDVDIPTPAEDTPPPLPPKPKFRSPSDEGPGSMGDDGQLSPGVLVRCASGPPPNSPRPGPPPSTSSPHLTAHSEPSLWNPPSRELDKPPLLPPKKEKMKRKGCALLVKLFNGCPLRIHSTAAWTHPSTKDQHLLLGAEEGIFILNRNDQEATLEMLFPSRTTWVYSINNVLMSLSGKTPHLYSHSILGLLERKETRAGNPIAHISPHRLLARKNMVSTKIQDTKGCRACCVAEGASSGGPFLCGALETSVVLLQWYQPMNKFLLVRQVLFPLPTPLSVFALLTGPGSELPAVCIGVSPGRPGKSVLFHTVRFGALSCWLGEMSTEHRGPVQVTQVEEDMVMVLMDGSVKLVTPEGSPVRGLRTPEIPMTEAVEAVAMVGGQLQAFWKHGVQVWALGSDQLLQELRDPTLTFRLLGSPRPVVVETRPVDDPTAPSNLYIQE
Human recombinant full-length GST-tagged PRKD2 (PKD2), sequence (Q9BZL6 whole entry): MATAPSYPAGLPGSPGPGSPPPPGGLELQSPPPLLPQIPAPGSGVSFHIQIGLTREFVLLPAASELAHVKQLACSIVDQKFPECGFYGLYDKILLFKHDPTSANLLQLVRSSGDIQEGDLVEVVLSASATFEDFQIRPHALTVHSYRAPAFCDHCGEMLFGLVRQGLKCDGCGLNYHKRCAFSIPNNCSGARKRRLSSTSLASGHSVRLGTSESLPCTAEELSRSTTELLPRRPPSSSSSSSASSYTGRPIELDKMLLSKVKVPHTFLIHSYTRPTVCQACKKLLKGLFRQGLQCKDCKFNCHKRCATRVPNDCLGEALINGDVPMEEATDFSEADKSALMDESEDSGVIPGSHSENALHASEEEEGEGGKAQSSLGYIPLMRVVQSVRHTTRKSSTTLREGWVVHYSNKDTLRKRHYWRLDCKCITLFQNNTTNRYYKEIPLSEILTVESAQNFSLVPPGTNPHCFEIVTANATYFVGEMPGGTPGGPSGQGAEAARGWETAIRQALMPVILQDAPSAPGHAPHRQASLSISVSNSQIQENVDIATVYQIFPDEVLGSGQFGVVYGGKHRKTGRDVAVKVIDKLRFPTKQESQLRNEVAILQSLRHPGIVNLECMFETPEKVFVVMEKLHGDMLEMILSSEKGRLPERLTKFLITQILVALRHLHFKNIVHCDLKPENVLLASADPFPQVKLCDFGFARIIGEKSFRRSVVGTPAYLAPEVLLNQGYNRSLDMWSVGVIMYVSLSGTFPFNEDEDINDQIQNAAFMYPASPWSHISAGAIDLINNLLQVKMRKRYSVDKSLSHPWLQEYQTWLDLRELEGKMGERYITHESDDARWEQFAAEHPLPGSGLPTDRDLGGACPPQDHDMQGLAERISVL
Human recombinant full-length GST-tagged RPS6KA2 (RSK3), sequence (Q15349 whole entry): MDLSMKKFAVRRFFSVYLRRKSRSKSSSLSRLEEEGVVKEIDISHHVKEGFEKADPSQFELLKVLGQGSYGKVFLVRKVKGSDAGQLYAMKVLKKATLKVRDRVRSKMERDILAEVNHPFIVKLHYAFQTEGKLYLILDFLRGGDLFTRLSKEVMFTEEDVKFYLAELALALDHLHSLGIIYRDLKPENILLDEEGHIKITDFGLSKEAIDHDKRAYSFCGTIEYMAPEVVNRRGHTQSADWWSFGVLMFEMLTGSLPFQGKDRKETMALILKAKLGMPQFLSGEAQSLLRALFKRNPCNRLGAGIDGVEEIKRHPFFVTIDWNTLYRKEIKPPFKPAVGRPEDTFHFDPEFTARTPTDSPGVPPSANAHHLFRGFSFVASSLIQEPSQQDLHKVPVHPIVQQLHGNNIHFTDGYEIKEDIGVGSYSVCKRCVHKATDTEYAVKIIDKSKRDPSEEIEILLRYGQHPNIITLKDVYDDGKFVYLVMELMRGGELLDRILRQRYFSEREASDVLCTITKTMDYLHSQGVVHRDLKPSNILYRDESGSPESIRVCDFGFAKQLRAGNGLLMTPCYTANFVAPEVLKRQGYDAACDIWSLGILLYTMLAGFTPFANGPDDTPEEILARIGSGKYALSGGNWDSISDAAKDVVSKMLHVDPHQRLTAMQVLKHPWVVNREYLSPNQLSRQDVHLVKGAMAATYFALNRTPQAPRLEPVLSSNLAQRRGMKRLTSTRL

For `CC[C@H]1CCc2nnc(-c3cccc(N4Cc5c(cc(N6CCC[C@H]6C)nc5[C@H](C)N)C4=O)n3)n21` [Example 3, 4-[(1S)-1-aminoethyl]-2-{6-[(5S)-5-ethyl-6,7-dihydro-5H-pyrrolo[2,1-c][1,2,4]triazol-3-yl]pyridin-2-yl}-6-[(2R)-2-methylpyrrolidin-1-yl]-2,3-dihydro-1H-pyrrolo[3,4-c]pyridin-1-one], in assay [1], the IC50 amounted to 3.33 nM and the “RSK3 IC50/HPK1 Ki” value is listed as over 66. In assay [2], the half-inhibitory concentration (IC50) stood at 6.54 nM and the “PRKD2 IC50/HPK1 Ki” value is listed as over 130. Besides, in assay [3], the inhibitory constant (Ki) is under 0.05 nM. Also, in assay [4], the IC50 was found to be 34 nM.
For the compound `CC[C@H]1CCc2nnc(-c3cccc(N4Cc5c(cc(N(C)C(C)C)nc5[C@@H](C)N)C4=O)n3)n21` [Example 4, 4-[(1R)-1-aminoethyl]-2-{6-[(5S)-5-ethyl-6,7-dihydro-5H-pyrrolo[2,1-c][1,2,4]triazol-3-yl]pyridin-2-yl}-6-[methyl(propan-2-yl)amino]-2,3-dihydro-1H-pyrrolo[3,4-c]pyridin-1-one], in assay [1], the IC50 amounted to 25.8 nM and the “RSK3 IC50/HPK1 Ki” value is over 520. Besides, in assay [2], the half-inhibitory concentration (IC50) is 217 nM and the “PRKD2 IC50/HPK1 Ki” value is given as over 4304. Also, in assay [3], the Ki was under 0.05 nM. The IC50 in assay [4] stood at 36 nM.
As for `CCn1cnnc1-c1cccc(N2Cc3c(cc(N4CCC[C@H]4C)nc3C(C)(C)N)C2=O)n1` [Example 100, 4-(2-aminopropan-2-yl)-2-[6-(4-ethyl-4H-1,2,4-triazol-3-yl)pyridin-2-yl]-6-[(2R)-2-methylpyrrolidin-1-yl]-2,3-dihydro-1H-pyrrolo[3,4-c]pyridin-1-one], in assay [1], the IC50 turned out to be 15.5 nM and the “RSK3 IC50/HPK1 Ki” value is given as over 320. In assay [2], the IC50 turned out to be 51.2 nM and the “PRKD2 IC50/HPK1 Ki” value is over 1020. The inhibition constant (Ki) in assay [3] was under 0.05 nM. For the same compound, the half-maximal inhibitory concentration (IC50) in assay [4] turned out to be 39 nM.
In the case of `CC[C@H]1CCc2nnc(-c3cccc(N4Cc5c(cc(N6CCC[C@H]6C)nc5CNC)C4=O)n3)n21` [Example 200, 2-{6-[(5S)-5-ethyl-6,7-dihydro-5H-pyrrolo[2,1-c][1,2,4]triazol-3-yl]pyridin-2-yl}-4-[(methylamino)methyl]-6-[(2R)-2-methylpyrrolidin-1-yl]-2,3-dihydro-1H-pyrrolo[3,4-c]pyridin-1-one], in assay [1], the IC50 amounted to 10.1 nM and the “RSK3 IC50/HPK1 Ki” value was over 200. Also, in assay [2], the IC50 came to 7.97 nM and the “PRKD2 IC50/HPK1 Ki” value is listed as over 160. The Ki in assay [3] was under 0.05 nM. Also, the IC50 in assay [4] was 16 nM.
In the case of `CC[C@H]1CCc2nnc(-c3cccc(N4Cc5c(cc(N(C)C(C)C)nc5CNC)C4=O)n3)n21` [Example 201, 2-{6-[(5S)-5-ethyl-6,7-dihydro-5H-pyrrolo[2,1-c][1,2,4]triazol-3-yl]pyridin-2-yl}-4-[(methylamino)methyl]-6-[methyl(propan-2-yl)amino]-2,3-dihydro-1H-pyrrolo[3,4-c]pyridin-1-one], in assay [1], the IC50 is 6.73 nM and the “RSK3 IC50/HPK1 Ki” value is reported as over 134. Also, in assay [2], the half-maximal inhibitory concentration (IC50) came out at 5.43 nM and the “PRKD2 IC50/HPK1 Ki” value is over 108. Besides, the inhibition constant (Ki) in assay [3] was under 0.05 nM. For the same compound, in assay [4], the IC50 amounted to 37 nM.
On to `CNCc1nc(N2CCC[C@H]2C)cc2c1CN(c1cccc(-c3nnc4n3[C@@H](CF)CC4)n1)C2=O` [Example 202, 2-{6-[(5R)-5-(fluoromethyl)-6,7-dihydro-5H-pyrrolo[2,1-c][1,2,4]triazol-3-yl]pyridin-2-yl}-4-[(methylamino)methyl]-6-[(2R)-2-methylpyrrolidin-1-yl]-2,3-dihydro-1H-pyrrolo[3,4-c]pyridin-1-one], for which, in assay [1], the 50% inhibitory concentration (IC50) turned out to be 40.1 nM and the “RSK3 IC50/HPK1 Ki” value is 667. In assay [2], the IC50 amounted to 6.54 nM and the “PRKD2 IC50/HPK1 Ki” value is recorded as 108. For the same compound, the Ki in assay [3] came out at 0.06 nM. Besides, the half-maximal inhibitory concentration (IC50) in assay [4] came out at 25 nM.

One may read the IC50 as the concentration needed to halve the response being measured. A word on the Ki: it is the equilibrium dissociation constant of an inhibitor or competing ligand from its target.
